According to patent US7049071B2, “Detection of DNA damaging agents” (University of Manchester Institute of Science and Technology, priority 1997, dated 2006):
Where “and” joins values, the source holds several entries; their conditions need not be identical. Identical values can stand only once.

Columns and labels:
Format in all cases: cell-based, Saccharomyces cerevisiae
RAD54 promoter [1] = assay: Western blot of yeast protein extracts with anti-GFP antibody; details: yeast cells transformed with pWDH443 or pWDH444, induced with MMS
Source text: Protein extracts from untransformed yeast cells and yeast cells transformed with both pWDH443 and pWDH444 were used in a Western blot analysis using anti-GFP antibody. GFP was not detected in untransformed cells and was only detected at low levels in uninduced transformed cells.

RAD54 promoter [2] = assay: Fluorescence assay of yeast transformed with pWDH443 or pWDH444 (RAD54 promoter linked to S65T GFP), whole cells or cell extracts
Method: Light emitted by GFP at 511 nm (after excitation at 488 nm) from yeast cells transformed with pWDH443 and pWDH444 and expressing GFP was measured in a fluorimeter in the absence (controls) or presence of compounds known to induce DNA damage such as Methyl Methane Sulphonate (MMS). Samples were assayed as whole cells or as cell extracts.
Yeast strains Y485 and Y486 in haploid form or Y485/486 in diploid form were in this Example (see above).
A stationary phase culture of cells grown in SD medium was used as the inoculum source. Aliquots (30 μl) of cells were inoculated into 3 ml of SD in 15 ml test tubes. […] The tubes were incubated at 25° C. for 16 h on an orbital shaker at 120 rpm, then transferred to an ice-box whilst maintaining agitation. The cells were then transferred to 1.5 ml eppendorf tubes, harvested by centrifugation (10 s), washed twice in sterile distilled water, and resuspended in 250 μl extraction buffer.
(§1) For whole cell fluorescent measurements, the washed cells were transferred directly to cuvettes containing 2.75 ml sterile distilled water.
For cell extract studies, 100μl of 400–600nm diameter glass beads were added to the tubes of cells which were then placed in a BIO 101 Fastprep FP120 to mechanically disrupt the cells. Following centrifugation for 30 s, the supernatant was transferred to a clean tube. The pellet of beads was washed in a further 250 μl of extraction buffer and this was added to the supernatant from the previous extraction. 200 μl of the pooled extract in 300 μl of water was then transferred to a cuvette.
Fluorescence measurements were performed with a Perkin Elmer LS50 Fluorescence Spectrometer. The excitation and emission wavelengths were set to 488nm and 511 nm, respectively, with a slit width of 10 nm. To correct for variations in cell number/protein extraction efficiency, light absorption was recorded for each cuvette at either 600 nm (for whole cells) or 280 nm (for extracts). The fluorescence values obtained from the fluorometer were then divided by the absorption readings to give the “brightness value”, an arbitrary unit independent of sample concentration. Other data handling details are dealt with either in the text or in the […]

RAD54 promoter [3] = assay: Whole cell GFP fluorescence of FF18984 transformed with yEGFP-444 or pWDH444; details: for Brightness (BU) + MMS, average: average of three; for Brightness (BU) + MMS: single measurements
Method: A stationary phase culture of cells grown in SD medium was used as the inoculum source. Aliquots (30 μl) of cells were inoculated into 3 ml of SD in 15 ml test tubes. Half of the tubes were then supplemented with 0.01% MMS (the remaining tubes left as controls). The tubes were incubated at 25° C. for 16 h on an orbital shaker at 120 rpm, then transferred to an ice-box whilst maintaining agitation. The cells were then transferred to 1.5 ml eppendorf tubes, harvested by centrifugation (10 s), washed twice in sterile distilled water, and resuspended in 250 μl extraction buffer.
as §1
Fluorescence measurements were performed with a Perkin Elmer LS50 Fluorescence Spectrometer. The excitation and emission wavelengths were set to 488nm and 511 nm, respectively, with a slit width of 10 nm. To correct for variations in cell number/protein extraction efficiency, light absorption was recorded for each cuvette at either 600 nm (for whole cells) or 280 nm (for extracts). The fluorescence values obtained from the fluorometer were then divided by the absorption readings to give the “brightness value”, an arbitrary unit independent of sample concentration. Other data handling details are dealt with either in the text or in the
The assessment of GFP fluorescence in whole cells was performed essentially as described in 1.2 (above).

RAD54 promoter [4] = assay: Specificity experiment: GFP reporter induction by agents that delay mitosis; details: transformed cells; concentration that inhibited cell growth to a similar extent to the MMS treatment regime
Source text: These experiments involved exposing transformed cells to hydroxyurea and nocodazole which can delay mitosis in different ways. Hydroxyurea interferes with DNA synthesis at two levels: it inhibits ribonucleotide reductase, so limiting the supply of precursors for DNA synthesis, and it inhibits DNA ligase, an enzyme responsible for repairing nicks (single strand breaks) in the DNA backbone. In contrast nocodazole inhibits microtubule formation and thus primarily arrests cell growth by preventing the normal segregation of chromosomes during mitosis.

[5] = FF18984 transformed with pWDH444, whole cells
[6] = FF18984 transformed with yEGFP-444, whole cells

Row | SMILES | GFP antibody binding in Western blot (RAD54 promoter [1]) | Time after induction at which fluorescence began to increase (RAD54 promoter [2]; 0.05% MMS) | Change in fluorescence (FIG. 10) (RAD54 promoter [2]; haploid Y486 transfected with pWDH444, cell extracts, 0.02% MMS) | Change in fluorescence (FIG. 10) (RAD54 promoter [2]; haploid Y486 transfected with pWDH444, cell extracts, 0.05% MMS) | Change in brightness relative to untransformed cells also exposed to MMS (FIG. 7) (RAD54 promoter [2]; pWDH443 transformed yeast Y485, Y486 and diploid Y485/486) | Change in fluorescence (RAD54 promoter [2]; pWDH443 transformed yeast Y485, Y486 and diploid Y485/486, 0.002% MMS) | Change in fluorescence (RAD54 promoter [2]; pWDH443 transformed yeast Y485, Y486 and diploid Y485/486, 0.01% MMS) | Change in fluorescence (FIG. 10) (RAD54 promoter [2]; untransformed Y486 cells, 0.02% MMS) | Change in fluorescence (FIG. 10) (RAD54 promoter [2]; untransformed Y486 cells, 0.05% MMS) | Brightness (BU) + MMS, average (RAD54 promoter [3]; [5]) | Brightness (BU) + MMS (RAD54 promoter [3]; [5]) | Brightness (BU) + MMS, average (RAD54 promoter [3]; [6]) | Brightness (BU) + MMS (RAD54 promoter [3]; [6]) | Induction of the GFP reporter gene (RAD54 promoter [4])
1 | COS(C)(=O)=O [MMS, Methyl Methane Sulphonate] | considerable increase in GFP antibody binding | one | increase in fluorescence | increase in fluorescence | increase in brightness | statistically significant increases in fluorescence | statistically significant increases in fluorescence | no significant effect | no significant effect | average = 49 BU | 45 BU and 54 BU and 48 BU | average = 96.7 BU | 100 BU and 97 BU and 93 BU | 
2 | NC(=O)NO [hydroxyurea] |  |  |  |  |  |  |  |  |  |  |  |  |  | no detectable induction of the GFP reporter gene
3 | COC(=O)Nc1nc2ccc(C(=O)c3cccs3)cc2[nH]1 [nocodazole] |  |  |  |  |  |  |  |  |  |  |  |  |  | no detectable induction of the GFP reporter gene
